We go through 15 compounds from PubChem BioAssay (NCI).

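Step 1: Grow cells in 96-well plates. Step 2: Expose to compound for 48 hours at 5 concentrations. Step 3: Interpolate endpoints linearly; if unreached, use highest concentration. TGI: total growth inhibition.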

Common to all, as to experiment: NCI-60 cell line screen, 48 h
The subject of experiment [1] is SK-MEL-28 melanoma.
In experiment [2] the test system is COLO 205 colon.
For experiment [3], the system named is NCI-H460 lung.
Experiment [4] deals with SF-268 CNS.
Experiment [5] deals with PC-3 prostate.
Experiment [6] has as its system T-47D breast.
The test system of experiment [7] is KM12 colon.
The test system of experiment [8] is OVCAR-4 ovarian.
The test system of experiment [9] is BT-549 breast.
The subject of experiment [10] is NCI/ADR-RES ovarian.
For experiment [11], the system named is OVCAR-5 ovarian.
Experiment [12] relates to HL-60(TB) leukemia.
In experiment [13] the test system is NCI-H226 lung.
Experiment [14] has as its system MDA-N.
The subject of experiment [15] is ACHN renal.
Experiment [16] relates to HOP-62 NSCLC.
Experiment [17] has as its system HS 578T breast.
The test system of experiment [18] is EKVX NSCLC.
In experiment [19] the test system is SR leukemia.

For `Cc1cc(C)c(S(=O)(=O)N2CCCN(S(=O)(=O)c3c(C)cc(C)cc3C)OCCCO2)c(C)c1`, the TGI in experiment [1], in experiment [2], in experiment [3], in experiment [4], in experiment [5] and in experiment [6] was above 100 µM in each case. The TGI in experiment [7], in experiment [8], in experiment [9], in experiment [10], in [11] and in [12] was above 100 µM throughout. Also, the TGI in [13], in experiment [14], in experiment [15], in experiment [16], in experiment [17] and in experiment [18] was above 100 µM each time.

On to `COC(=O)c1ccc(NC(=O)O/N=C(\Cl)C(C)C)cc1`, for which the TGI in [1] was 10.1 µM; in experiment [2] it was 3.72 µM; in experiment [3], 41.2 µM; in experiment [4], above 78.1 µM; in experiment [5], 31.1 µM; in experiment [6] it was 5.02 µM. Besides, the TGI worked out at 30.2 µM in experiment [7]; 32 µM in experiment [8]; 8.94 µM in experiment [9]; 16.7 µM in experiment [10]; 32.8 µM in [11]; 3.66 µM in experiment [12]. In addition, the TGI in experiment [13] was above 53.6 µM; in [14] it was 22.8 µM; in [15], 3.16 µM; in experiment [16], 32.9 µM; in experiment [17], above 66.7 µM; in [18] it was 10.9 µM.

As to `COc1cc(/C=C2\N=C(c3ccccc3)N(c3nc4cc(C)c(C)cc4s3)C2=O)ccc1O`, the TGI in [1], in [2], in experiment [3], in experiment [4], in experiment [5] and in [6] was above 100 µM each time. Further, the TGI is above 100 µM in experiment [7]; above 100 µM in experiment [8]; above 100 µM in experiment [9]; 57.8 µM in experiment [19]; above 100 µM in [10]; above 100 µM in [11]. In addition, the TGI in experiment [12] is 43.9 µM; in [14] it was 37.7 µM; in experiment [15] it was above 100 µM; in experiment [16], above 100 µM; in experiment [17], above 100 µM; in [18], above 100 µM.

On to `Cc1cccc(C)c1NC(=O)C(=O)CC(=O)/C=C/c1ccccc1`, for which the TGI in [1], in [3], in [4], in experiment [5], in [6] and in [7] was above 100 µM in each case. Moreover, the TGI in [8], in experiment [9], in experiment [10], in [11], in [12] and in experiment [13] was above 100 µM each time. Besides, the TGI in [14], in [15], in experiment [16], in [17] and in experiment [18] was above 100 µM in each case.

As for `Clc1ccc(OCc2nnc(CCCCCCCCc3nnc(COc4ccc(Cl)cc4Cl)n3Nc3ccccc3)n2Nc2ccccc2)c(Cl)c1`, the TGI is 19 µM in experiment [1]; 3.38 µM in experiment [2]; 21.1 µM in experiment [3]; 32.1 µM in experiment [4]; 34.8 µM in experiment [5]; above 100 µM in experiment [6]. Further, the TGI came out at 25.6 µM in [7]; 59.5 µM in [8]; 49.7 µM in [9]; 51.8 µM in [10]; 43.9 µM in experiment [11]; 38 µM in experiment [13]. The TGI is 27.7 µM in experiment [14]; 46.1 µM in experiment [15]; 18.2 µM in experiment [16]; 31.4 µM in experiment [17]; above 68.3 µM in experiment [18].

As for `COc1cccc2c1CCc1c(-c3ccc(F)cc3)cc(-c3ccc4ccccc4n3)nc1-2`, the TGI in experiment [2], in experiment [3], in experiment [4], in [5], in experiment [6] and in experiment [7] was above 100 µM throughout. Moreover, the TGI in experiment [8], in experiment [9], in experiment [19], in [10], in experiment [11] and in experiment [13] was above 100 µM throughout. The TGI in [14], in experiment [15], in experiment [16], in experiment [17] and in experiment [18] was above 100 µM each time.

Consider `Nc1nc2c(c(=O)[nH]1)C(c1ccccc1)CC(=O)N2` (configuration not stated), for which the TGI in experiment [1], in [2], in experiment [3], in [4], in experiment [5] and in experiment [6] was above 100 µM throughout. Besides, the TGI in [7], in [8], in experiment [9], in experiment [19], in [10] and in [11] was above 100 µM each time. Besides, the TGI in [13], in [14], in experiment [15], in [16], in experiment [17] and in [18] was above 100 µM each time.

Turning to `CN(C)CCCNc1ccc2c(=O)n(CCN(C)C)c(=O)n3c4ccccc4c(=O)c1c23`, the TGI is 2.57 µM in experiment [1]; 1.22 µM in experiment [2]; 1.06 µM in experiment [3]; 11.8 µM in [4]; 1.81 µM in experiment [5]; 13.7 µM in experiment [6]. Also, the TGI in [7] was determined as 1.4 µM; in experiment [8], 4.35 µM; in experiment [9], 0.369 µM; in experiment [19], 2.96 µM; in experiment [10], 4.02 µM; in [11], 1.89 µM. Besides, the TGI in experiment [13] turned out to be 2.53 µM; in experiment [14], 0.312 µM; in experiment [15], 1.47 µM; in experiment [16], 5.91 µM; in experiment [17], 15.7 µM; in experiment [18] it was 3.02 µM.

Turning to `CC1(C)CC2=C(Sc3ccccc3N2)C(=O)C1C(=O)C(=O)Nc1cccc([N+](=O)[O-])c1` (configuration not stated), the TGI in [1], in experiment [2], in experiment [3], in experiment [4], in [5] and in experiment [6] was above 100 µM in each case. In addition, the TGI in [7], in experiment [8], in experiment [9], in experiment [10], in experiment [11] and in experiment [12] was above 100 µM each time. For the same compound, the TGI in [13], in experiment [14], in [15], in experiment [17] and in experiment [18] was above 100 µM in each case.

As to `O=C1/C(=C/c2ccc(OC(=O)c3ccccc3)cc2)CCC/C1=C\c1ccc(OC(=O)c2ccccc2)cc1`, the TGI in experiment [1], in [2], in [3], in experiment [4], in experiment [5] and in experiment [6] was above 100 µM in each case. The TGI in experiment [7], in experiment [8], in [9], in [19], in [10] and in [11] was above 100 µM throughout. The TGI in experiment [12], in [14], in experiment [15], in experiment [16], in experiment [17] and in experiment [18] was above 100 µM each time.

Take `CN1C/C(=C\c2cccs2)C2=NN(C)C(c3cccs3)C2C1` (configuration not stated): the TGI in experiment [1], in experiment [2], in experiment [3], in experiment [4], in experiment [5] and in experiment [6] was above 100 µM in each case. In addition, the TGI in experiment [7] is above 100 µM; in [8] it was above 100 µM; in experiment [9] it was above 100 µM; in experiment [10], above 100 µM; in experiment [11], above 100 µM; in [12], 43.6 µM. In addition, the TGI in experiment [13], in experiment [14], in [15], in experiment [16], in experiment [17] and in experiment [18] was above 100 µM each time.

Take `C=C1C(=O)O[C@@H]2[C@@H]3O[C@@H](C[C@@H]13)[C@](C)(O)CC/C=C(\C)CCC[C@@H]2C`: the TGI in experiment [1] is 33.3 µM; in experiment [2], 31.5 µM; in experiment [3], 30.8 µM; in experiment [4], 43.9 µM; in experiment [5], 22.9 µM; in experiment [6], 43.9 µM. The TGI in experiment [7] stood at 43.1 µM; in experiment [8] it was 29.6 µM; in experiment [9], 27.5 µM; in experiment [10], 38.5 µM; in experiment [11] it was 48 µM; in experiment [12] it was 10.4 µM. Besides, the TGI is 36.1 µM in experiment [13]; 18.3 µM in experiment [14]; 21.2 µM in experiment [15]; 30.5 µM in experiment [16]; 37.8 µM in [17]; 32 µM in experiment [18].

In the case of `COc1ccc(S(=O)(=O)NC(CCC(=O)NN)C(=O)NN)cc1` (configuration not stated), the TGI in [1], in experiment [2], in [3], in experiment [5], in experiment [6] and in experiment [7] was above 100 µM in each case. In addition, the TGI in [8], in experiment [9], in experiment [19], in experiment [10], in [11] and in experiment [12] was above 100 µM throughout. Also, the TGI in [14], in [15], in experiment [16], in experiment [17] and in experiment [18] was above 100 µM throughout.

In the case of `C/C(=N\n1c(Cc2ccccc2)n[nH]c1=O)c1ccccc1`, the TGI in experiment [1], in experiment [2], in experiment [4], in experiment [5], in [6] and in experiment [7] was above 100 µM each time. In addition, the TGI in experiment [8], in [9], in experiment [10], in experiment [11], in experiment [12] and in [13] was above 100 µM in each case. Moreover, the TGI in experiment [14], in experiment [15], in experiment [17] and in [18] was above 100 µM in each case.

On to `CN=c1c2c(c3[nH]c4ccccc4c4cnc1c34)NCCC2=O`, for which the TGI in [1], in experiment [2], in experiment [3], in experiment [4], in experiment [5] and in experiment [6] was above 10 µM in each case. Moreover, the TGI in experiment [7], in [8], in experiment [9], in [10], in [11] and in experiment [13] was above 10 µM throughout. Besides, the TGI in [14], in [15], in experiment [16], in experiment [17] and in experiment [18] was above 10 µM throughout.
